The target in experiment [1] is T1, PCSK9 (Homo sapiens, UniProt Q8NBP7). Kind of experiment: Differential scanning calorimetry (DSC) assay, direct binding / thermal stabilization of PCSK9. Conditions: Tm(with compound)−Tm(no compound); 2 μM PCSK9, 300 μM test compound. As for the experimental part:
Differential scanning calorimetry (DSC) was used as a biophysical method to confirm direct binding to PCSK9. A solution containing 2 μM PCSK9 with or without 300 μM test compound in 25 mM HEPES (pH 7.5)/150 mM NaCl/1 mM CaCl2/3.75% DMSO was transferred to the sample cell of the DSC instrument, while buffer alone was placed in the reference cell. Both cells were heated at a constant rate (200° C./hr) from 20-80° C. while recording the excess heat capacity of the sample cell relative to the reference cell. Each thermogram was analyzed to provide the melting temperature (Tm) of the protein.
The higher the temperature shift generally, the higher the affinity.

Experiment [2] addresses T1, PCSK9. Kind of experiment: Fluorescence polarization competition binding assay (probe: compound of Example 57). Conditions: 2 μM PCSK9, 50 nM compound of Example 57 as probe, overnight incubation; read-out: FP IC. How it is done:
Relative compound affinities were determined using a competition binding assay with a fluorescence polarization format. Solution (49 μL) containing 2 μM PCSK9 and 50 nM compound of Example 57 in 20 mM HEPES (pH 7.5)/150 mM NaCl/1 mM CaCl2/0.005% P-20 was dispensed to wells of a 384-well black non-binding microplate before the addition of 1 μL of test compound or DMSO. After mixing, the plate was centrifuged and sealed for overnight incubation in the dark. The anisotropy signal was read using a fluorescence polarization protocol on a Perkin-Elmer Envision plate reader. The % inhibition was determined relative to the window defined by the DMSO control wells and wells containing 50 nM probe in the absence of PCSK9.

Structures are written as SMILES.

Results on 21 compounds are retold here after patent US11008313B2, “Substituted 1-methyl-1,2,3,4-tetrahydroisoquinoline molecules as PCSK9 allosteric binders” (Merck Sharp & Dohme Corp., priority 2016, dated 2021).

T1 sequence (Q8NBP7 153-692): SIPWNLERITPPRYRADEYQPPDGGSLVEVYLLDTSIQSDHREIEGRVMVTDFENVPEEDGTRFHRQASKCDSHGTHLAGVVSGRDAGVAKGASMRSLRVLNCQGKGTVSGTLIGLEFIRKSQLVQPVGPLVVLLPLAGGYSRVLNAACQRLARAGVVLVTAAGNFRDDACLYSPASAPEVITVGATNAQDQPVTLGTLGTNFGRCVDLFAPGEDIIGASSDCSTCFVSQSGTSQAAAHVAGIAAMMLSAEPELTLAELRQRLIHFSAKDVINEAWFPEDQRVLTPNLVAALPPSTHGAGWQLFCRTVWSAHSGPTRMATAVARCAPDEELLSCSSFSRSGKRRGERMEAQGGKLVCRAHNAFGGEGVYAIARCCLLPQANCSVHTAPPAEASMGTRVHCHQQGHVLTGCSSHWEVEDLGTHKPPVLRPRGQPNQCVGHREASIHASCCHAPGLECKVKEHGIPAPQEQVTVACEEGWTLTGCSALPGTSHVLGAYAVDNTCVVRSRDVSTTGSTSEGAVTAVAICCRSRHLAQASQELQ

Consider `Cc1ccc(C2C(C(=O)O)c3ccccc3C(=O)N2c2cccc(-c3cn(CCOc4cc5c(cc4Oc4ccc(C(=O)O)c(F)c4)[C@@](C)(CC(=O)Nc4nccs4)NCC5)nn3)c2)cc1` (stereo partly drawn) [Example 51, 2-(3-(1-(2-(((R)-7-(4-carboxy-3-fluorophenoxy)-1-methyl-1-(2-oxo-2-(thiazol-2-ylamino)ethyl)-1,2,3,4-tetrahydroisoquinolin-6-yl)oxy)ethyl)-1H-1,2,3-triazol-4-yl)phenyl)-1-oxo-3-(p-tolyl)-1,2,3,4-tetrahydroisoquinoline-4-carboxylic acid], for which the ΔTm at 300 µM at PCSK9 [1] amounted to 6.87 °C. In addition, the IC50 on PCSK9 [2] is 705 nM.

Turning to `C[C@]1(CC(=O)Nc2cccnn2)NCCc2cc(OCC3CCCCO3)c(Oc3ccc(-c4ccc(C(=O)O)cc4)c(F)c3)cc21` (stereo partly drawn) [Example 91, 2′-fluoro-4′-(((1R)-1-methyl-1-(2-oxo-2-(pyridazin-3-ylamino)ethyl)-6-((tetrahydro-2H-pyran-2-yl)methoxy)-1,2,3,4-tetrahydroisoquinolin-7-yl)oxy)-[1,1′-biphenyl]-4-carboxylic acid], on PCSK9 [1], the ΔTm at 300 µM was determined as 7.19 °C. Besides, the IC50 on PCSK9 [2] came to 860 nM.

On to `C[C@]1(CC(=O)Nc2nccs2)NCCc2cc(OCc3ccccn3)c(Oc3cccc(F)c3)cc21` [Example 83, (R)-2-(7-(3-fluorophenoxy)-1-methyl-6-(pyridin-2-ylmethoxy)-1,2,3,4-tetrahydroisoquinolin-1-yl)-N-(thiazol-2-yl)acetamide], for which the ΔTm at 300 µM on PCSK9 [1] came to 5.2 °C. Moreover, the IC50 on PCSK9 [2] was determined as 852 nM.

As for `COc1cccc(NC(=O)C[C@@]2(C)NCCc3cc(OCC4CCCCO4)c(Oc4ccc(Br)c(F)c4)cc32)n1` (stereo partly drawn) [Example 87, 2-((1R)-7-(4-bromo-3-fluorophenoxy)-1-methyl-6-((tetrahydro-2H-pyran-2-yl)methoxy)-1,2,3,4-tetrahydroisoquinolin-1-yl)-N-(6-methoxypyridin-2-yl)acetamide], the ΔTm at 300 µM at PCSK9 [1] was 6.57 °C. The IC50 at PCSK9 [2] came to 1.4 nM.

As for `C[C@]1(CC(=O)Nc2nccs2)NCCc2cc(OCc3ncccn3)c(Oc3ccc(C(=O)O)c(F)c3)cc21` [Example 68, (R)-2-fluoro-4-((1-methyl-1-(2-oxo-2-{thiazol-2-ylamino)ethyl)-6-(pyrimidin-2-ylmethoxy)-1,2,3,4-tetrahydroisoquinolin-7-yl)oxy)benzoic acid], the ΔTm at 300 µM at PCSK9 [1] was determined as 7.56 °C. Besides, the IC50 at PCSK9 [2] amounted to 477 nM.

Take `COc1cc2c(cc1Oc1cccc(F)c1)[C@@](C)(CC(=O)Nc1cccc3[nH]ccc13)NCC2` [Example 12, (R)-2-(7-(3-fluorophenoxy)-6-methoxy-1-methyl-1,2,3,4-tetrahydroisoquinolin-1-yl)-N-(1H-indol-4-yl)acetamide]: at PCSK9 [1], the ΔTm at 300 µM is -0.225 °C. Moreover, the IC50 at PCSK9 [2] came out at 753 nM.

On to `COc1ccc(-n2nc(-c3cn(CCOc4cc5c(cc4Oc4ccc(C(=O)O)c(F)c4)[C@@](C)(CC(=O)Nc4nccs4)NCC5)nn3)cc(C)c2=O)cc1` [Example 43, (R)-2-fluoro-4-((6-(2-(4-(1-(4-methoxyphenyl)-5-methyl-6-oxo-1,6-dihydropyridazin-3-yl)-1H-1,2,3-triazol-1-yl)ethoxy)-1-methyl-1-(2-oxo-2-(thiazol-2-ylamino)ethyl)-1,2,3,4-tetrahydroisoquinolin-7-yl)oxy)benzoic acid], for which the ΔTm at 300 µM at PCSK9 [1] stood at 5.45 °C. Besides, the IC50 at PCSK9 [2] came out at 418 nM.

For `COc1cc2c(cc1Oc1ccc(-c3ccc(C(=O)O)cc3)nc1)[C@@](C)(CC(=O)Nc1nccs1)NCC2` [Example 35, (R)-4-(5-((6-methoxy-1-methyl-1-(2-oxo-2-(thiazol-2-ylamino)ethyl)-1,2,3,4-tetrahydroisoquinolin-7-yl)oxy)pyridin-2-yl)benzoic acid], the ΔTm at 300 µM at PCSK9 [1] was found to be 5.29 °C. In addition, at PCSK9 [2], the IC50 amounted to 681 nM.

Take `C[C@]1(CC(=O)Nc2nccs2)NCCc2cc(OCC3CCCO3)c(Oc3ccc(C(=O)O)cc3)cc21` (stereo partly drawn) [Example 67, 4-(((1R)-1-methyl-1-(2-oxo-2-(thiazol-2-ylamino)ethyl)-6-((tetrahydrofuran-2-yl)methoxy)-1,2,3,4-tetrahydroisoquinolin-7-yl)oxy)benzoic acid]: at PCSK9 [1], the ΔTm at 300 µM is 7.31 °C. Moreover, the IC50 on PCSK9 [2] was determined as 420 nM.

Regarding `Cc1nnc(-c2cn(CCOc3cc4c(cc3Oc3ccc(C(=O)O)c(F)c3)[C@@](C)(CC(=O)Nc3nccs3)NCC4)nn2)o1` [Example 39, (R)-2-fluoro-4-((1-methyl-6-(2-(4-(5-methyl-1,3,4-oxadiazol-2-yl)-1H-1,2,3-triazol-1-yl)ethoxy)-1-(2-oxo-2-(thiazol-2-ylamino)ethyl)-1,2,3,4-tetrahydroisoquinolin-7-yl)oxy)benzoic acid], the ΔTm at 300 µM on PCSK9 [1] came out at 5.98 °C. On PCSK9 [2], the IC50 was found to be 292 nM.

For the compound `COC(=O)c1ccc2cc1OCCCCCc1csc(n1)NC(=O)C[C@@]1(C)NCCc3cc(OC)c(cc31)O2` [Example 3, methyl (R,Z)-36-methoxy-31-methyl-5-oxo-31,32,33,34-tetrahydro-2,13-dioxa-6-aza-7(2,4)-thiazola-3(7,1)-isoquinolina-1(1,3)-benzenacyclotridecaphane-14-carboxylate], the ΔTm at 300 µM on PCSK9 [1] came out at 4.92 °C. Moreover, the IC50 on PCSK9 [2] stood at 1250 nM.

On to `CC(=O)NCc1cn(CCOc2cc3c(cc2Oc2ccc(C(=O)O)c(F)c2)[C@@](C)(CC(=O)Nc2nccs2)NCC3)nn1` [Example 46], for which the ΔTm at 300 µM on PCSK9 [1] is 6.48 °C. Besides, the IC50 at PCSK9 [2] was determined as 602 nM.

`COc1cccc(NC(=O)C[C@@]2(C)NCCc3cc(OC)c(Oc4cccc(F)c4)cc32)c1` [Example 11, (R)-2-(7-(3-fluorophenoxy)-6-methoxy-1-methyl-1,2,3,4-tetrahydroisoquinolin-1-yl)-N-(3-methoxyphenyl)acetamide]: the ΔTm at 300 µM on PCSK9 [1] came out at 5.69 °C. Further, on PCSK9 [2], the IC50 came out at 756 nM.

Regarding `CC1(CC(=O)Nc2nccs2)NCCc2cc(OCC3CCCCO3)c(-c3ccc(F)c(C(=O)O)c3)cc21` (stereo not drawn) [Example 110, 2-fluoro-5-(1-methyl-1-(2-oxo-2-(thiazol-2-ylamino)ethyl)-6-((tetrahydro-2H-pyran-2-yl)methoxy)-1,2,3,4-tetrahydroisoquinolin-7-yl)benzoic acid], at PCSK9 [1], the ΔTm at 300 µM amounted to 6.7 °C. On PCSK9 [2], the IC50 came to 0.98 nM.

For `COC(=O)CCc1ccc(-c2ccc(Oc3cc4c(cc3OC)CCN[C@]4(C)CC(=O)Nc3nccs3)cn2)cc1` [Example 16, methyl (R)-3-(4-(5-((6-methoxy-1-methyl-1-(2-oxo-2-(thiazol-2-ylamino)ethyl)-1,2,3,4-tetrahydroisoquinolin-7-yl)oxy)pyridin-2-yl)phenyl)propanoate], the ΔTm at 300 µM at PCSK9 [1] is 3.57 °C. For the same compound, at PCSK9 [2], the IC50 amounted to 4.15 nM.

For the compound `COC(=O)c1cc(-c2ccc(Oc3cc4c(cc3OC)CCN[C@]4(C)CC(=O)Nc3nccs3)cn2)c[nH]1` [Example 17, methyl (R)-4-(5-((6-methoxy-1-methyl-1-(2-oxo-2-(thiazol-2-ylamino)ethyl)-1,2,3,4-tetrahydroisoquinolin-7-yl)oxy)pyridin-2-yl)-1H-pyrrole-2-carboxylate], the ΔTm at 300 µM at PCSK9 [1] was 2.62 °C. Besides, the IC50 on PCSK9 [2] is 11.5 nM.

Regarding `C[C@]1(CC(=O)Nc2nccs2)NCCc2cc(OCCn3cc(C(O)CN)nn3)c(Oc3ccc(C(=O)O)c(F)c3)cc21` (stereo partly drawn) [Example 55, 4-(((1R)-6-(2-(4-(2-amino-1-hydroxyethyl)-1H-1,2,3-triazol-1-yl)ethoxy)-1-methyl-1-(2-oxo-2-(thiazol-2-ylamino)ethyl)-1,2,3,4-tetrahydroisoquinolin-7-yl)oxy)-2-fluorobenzoic acid], the ΔTm at 300 µM at PCSK9 [1] came to 5.82 °C. Besides, the IC50 at PCSK9 [2] amounted to 878 nM.

As to `COc1cccc(NC(=O)C[C@@]2(C)NCCc3cc(OCC4CCCCO4)c(Oc4ccc(-c5ccc(C(=O)O)cc5)c(F)c4)cc32)n1` (stereo partly drawn) [Example 90, 2′-fluoro-4′-(((1R)-1-(2-((6-methoxypyridin-2-yl)amino)-2-oxoethyl)-1-methyl-6-((tetrahydro-2H-pyran-2-yl)methoxy)-1,2,3,4-tetrahydroisoquinolin-7-yl)oxy)-[1,1′-biphenyl]-4-carboxylic acid], the ΔTm at 300 µM at PCSK9 [1] was found to be 8.59 °C. Besides, the IC50 at PCSK9 [2] came out at 109 nM.

As for `C[C@]1(CC(=O)Nc2nccs2)NCCc2cc(OCC3CCCCO3)c(Oc3cccc(F)c3)cc21` (stereo partly drawn) [Example 79, 2-((1R)-7-(3-fluorophenoxy)-1-methyl-6-((tetrahydro-2H-pyran-2-yl)methoxy)-1,2,3,4-tetrahydroisoquinolin-1-yl)-N-(thiazol-2-yl)acetamide], the ΔTm at 300 µM at PCSK9 [1] is 6.76 °C. Besides, at PCSK9 [2], the IC50 worked out at 823 nM.

On to `COc1cc2c(cc1Oc1ccnc(F)c1)[C@@](C)(CC(=O)Nc1nccs1)NCC2` [Example 7, (R)-2-(7-((2-fluoropyridin-4-yl)oxy)-6-methoxy-1-methyl-1,2,3,4-tetrahydroisoquinolin-1-yl)-N-(thiazol-2-yl)acetamide], for which, on PCSK9 [1], the ΔTm at 300 µM turned out to be 5.59 °C. For the same compound, the IC50 at PCSK9 [2] was 652 nM.

For the compound `COc1ccc(Oc2cc3c(cc2OC)CCN[C@]3(C)CC(=O)Nc2nccs2)cc1F` [Example 10, (R)-2-(7-(3-fluoro-4-methoxyphenoxy)-6-methoxy-1-methyl-1,2,3,4-tetrahydroisoquinolin-1-yl)-N-(thiazol-2-yl)acetamide], the ΔTm at 300 µM at PCSK9 [1] turned out to be 5.55 °C. On PCSK9 [2], the IC50 was found to be 902 nM.
